Measurements taken from patent US20230390366A1, “PARAPHARMACEUTICAL OR PHARMACEUTICAL COMPOSITION ADMINISTRABLE TO A LIVING BEING, PREFERABLY A HUMAN BEING, COMPRISING AT LEAST ONE ENZYME FOR THE TREATMENT AND/OR PREVENTION OF BACTERIAL INFECTIONS INVOLVING BIOFILM FORMATION” (priority 2020, published 2023).

What was measured:
Format in all cases: cell-based
[1] = tested on: S. aureus ATCC33591 biofilm; experiment: Curative enzyme treatment followed by 24 hours vancomycin, biofilm in 96-well plates, viability (resazurin) and biomass (crystal violet); conditions: vancomycin 10 mg and 20 mg/L, absence of enzyme treatment
Description: For the tests described below, vancomycin was used as the antibiotic molecule. The antibiotic was added at different concentrations in TGN for 24 hours at 37° C. on the biofilms pretreated with the enzyme composition according to the invention (see the below sections). The biofilm was then washed before carrying out the biomass and viability measurements.
In this model, cell viability was measured indirectly, by measuring the metabolism of cells in the biofilm. Indeed, viability was quantified by tracking changes in the colour of resazurin (7-Hydroxy-3H-phenoxazin-3-one 10 oxide) (prestoBlue, ThermoFisher). […] The quantification of resorufin was carried out by measuring fluorescence. […]
The experimental method for cultivating the strains and forming the biofilm is described in point 1.1 of this document. […] The biofilms were then washed 2× with PBS (200 μl) before biomass and viability were analysed. Biomass was quantified via the CV staining technique following the procedure described in point 1.1. […] The plate containing all the samples was then incubated for 24 hours at 37° C. in the spectraMax M3 plate reader. Fluorescence was measured every 10 minutes for 18 hours (excitation 560 nm, emission 590 nm). […]

[2] = tested on: S. aureus biofilm; experiment: Curative enzyme treatment followed by 24 hours vancomycin, biofilm on titanium coupons, viability by CFU counting; conditions: vancomycin 20 mg/L
Description: (§1) Two different biofilm models were used: static biofilm in 96-well plate (as described previously) and biofilm on titanium coupons. Titanium was chosen because it is a material widely used in the manufacture of implants (e.g. orthopaedic prostheses, dental implants, heart valves, pacemakers, etc.). The techniques used to measure viability differ between the two models and are detailed below.
(§2) In this model, viability was quantified after detachment and homogenisation of the biofilm via the technique of spreading and counting cells on a TSA culture media (VWR).
(§3) Titanium coupons (n=3 for each condition) were placed in the wells of a 12-well plate and incubated at 37° C. with agitation (50 rpm) for 24 hours in 3 ml of bacterial inoculum at an OD of 0.005 (10^6 CFU/ml) in order to allow biofilm to form. The coupons were then washed 2× with PBS (2 ml) and treated for 1 hour at 37° C. with the composition according to the invention or the solution without enzymes (CT−=20 mM TrisHCl pH7). The coupons were then washed twice with PBS (2 ml) and reincubated in 750 μl of TGN containing 0 or 20 mg/L of vancomycin for 24 hours at 37° C. with agitation (50 rpm). After two washes with PBS (2 ml), the biofilm was detached and homogenised in 2 ml of PBS. Different dilutions were carried out (from 10 to 10) and 10 μl of each dilution was spread on a TSA dish. Colonies (CFU) were counted after 18 hours of incubation at 37° C.
(§4) To analyse the effect of the compositions according to the invention, a statistical test (one-way ANOVA and Tukey's post-hoc test) was carried out. This test compares the fluorescence (viability) or absorbance (biomass) values of the CT− negative control (=treatment with buffer without enzymes) and of the biofilms treated with the enzyme compositions, at each vancomycin concentration. The difference is significant when the pvalue of the statistical test is less than or equal to 0.05 (* used on graphs). When this is specified in the comparative examples, the activity of the various enzyme compositions is compared (one-way ANOVA and post-hoc Tukey test).

[3] = tested on: S. epidermidis ATCC35984 biofilm; experiment: as above; conditions: vancomycin 20 mg/L, absence of enzyme treatment (CT−, TGN)
Description: as §1, §2, §3, §4

[4] = tested on: S. aureus biofilm; experiment: Curative enzyme treatment (1 hour, 37° C.) of preformed 24-hour biofilm in 96-well plates, residual biomass by crystal violet staining (A570); conditions: S. aureus ATCC33591 and 7832; 100 U/ml in TGN; vs CT−; 1 biofilm/3 of the panel significantly reduced
Description: The effect of a treatment with the composition according to the invention on the biomass of biofilms was studied in a static model in 96-well plates. The curative enzyme treatment was carried out on a preformed 24-hour biofilm. To test its efficacy in reducing the biomass of biofilms, the composition according to the invention was brought into contact with the biofilm for 1 hour at 37° C. The enzyme solution was then removed, and the detached biomass was removed via rinsing steps. Crystal violet (CV) dye was then used to quantify residual biomass. […] CV staining was quantified via spectrophotometry by measuring the absorbance at 570 nm.
The different strains of S. aureus and P. aeruginosa (Table 1) were inoculated in 5 ml of TGN culture medium (Tryptic Soy Broth VWR+1% glucose+2% NaCl) from 20 μl of a stored glycerol stock at −80° C. […] The plates were then emptied, the biofilm was washed 2× with 200 μl PBS pH 7.5 (Sigma) and dried at 60° C. for 18 h before the biomass was analysed.
To quantify the residual biomass, a 1% CV solution (Sigma) was added to the biofilms at room temperature for 15 min. […] The dye attached to the biofilm was then detached and dissolved with 66% […] and absorbance at 570 nm (A570) was measured in a SpectraMax M3 multimode reader. This absorbance value corresponds to the biomass of the biofilm. […]

[5] = tested on: S. epidermidis ATCC35984 biofilm; experiment: as above; conditions: 100 U/ml in TGN, vs CT−, 1 biofilm/3 of the panel significantly reduced
[6] = tested on: MG63 osteoblasts
Description: Cytotoxicity tests were performed on MG63 osteoblasts and other cell types.

[7] = tested on: biofilms comprising Candida albicans; experiment: Enzyme treatment of biofilms comprising Candida albicans followed by antifungal/antibiotic; conditions: Candida albicans alone or with S. aureus and/or E. coli; enzymes 30 minutes or 1 hour, then Caspofungin (and Moxifloxacin or Meropenem) 24 hours
Description: The inventors then attempted to treat biofilms comprising Candida albicans, either in monoculture or in complex biofilm models comprising Candida albicans and prokaryotes. Different strains of Candida albicans were used: the ATCC24433 strain, as well as strains isolated from orthopaedic prosthesis infections. Subtilisin (protease from Bacillus licheniformis) and lyticase (from Arthrobacter luteus or Bacillus subtilis) were obtained at Sigma. The other enzymes are those used above.
The antifungal drug Caspofungin (Merck Sharp & Dohme) and, for complex biofilms additionally comprising one or more prokaryotes, the antibiotics Moxifloxacin HCl (Bayer) or Meropenem (Mylan) were used (24 hours of treatment, after the application of enzymes).

CN[C@H](CC(C)C)C(=O)N[C@H]1C(=O)N[C@@H](CC(N)=O)C(=O)N[C@H]2C(=O)N[C@H]3C(=O)N[C@H](C(=O)N[C@H](C(=O)O)c4cc(O)cc(O)c4-c4cc3ccc4O)[C@H](O)c3ccc(c(Cl)c3)Oc3cc2cc(c3O[C@@H]2O[C@H](CO)[C@@H](O)[C@H](O)[C@H]2O[C@H]2C[C@](C)(N)[C@H](O)[C@H](C)O2)Oc2ccc(cc2Cl)[C@H]1O [vancomycin]
effect on viability of the biofilm (in words) ([1]; 20 mM TrisHCl pH7): only very slightly reduces | effect on viability of the biofilm (in words) ([1]; TGN): does not reduce | effect on viability in biofilm (in words) ([2]; S. aureus ATCC33591, titanium coupons, absence of enzyme treatment (CT−, Tris-HCl)): does not decrease viability in biofilm | effect on viability in biofilm (in words) ([2]; S. aureus ATCC33591 and 144-20, absence of enzyme treatment (CT−, TGN)): does not significantly reduce viability in biofilm | effect on viability in biofilm (in words) [3]: does not significantly reduce viability in biofilm

B1: CE1: RNase I (Escherichia coli endoribonuclease, class EC4.6.1) 100 U/ml in TGN (protein, UniProt P21338 24-268, looked up)
Ribonuclease I: LALQAKQYGDFDRYVLALSWQTGFCQSQHDRNRNERDECRLQTETTNKADFLTVHGLWPGLPKSVAARGVDERRWMRFGCATRPIPNLPEARASRMCSSPETGLSLETAAKLSEVMPGAGGRSCLERYEYAKHGACFGFDPDAYFGTMVRLNQEIKESEAGKFLADNYGKTVSRRDFDAAFAKSWGKENVKAVKLTCQGNPAYLTEIQISIKADAINAPLSANSFLPQPHPGNCGKTFVIDKAGY
effect on the decrease in the biomass percentage of the biofilms (in words) [4]: little or no significant effect | effect on the decrease in the biomass percentage of the biofilms (in words) [5]: little or no significant effect

B2: subtilisin: protease from Bacillus licheniformis (Sigma) (protein, UniProt P00780 106-379, looked up)
Subtilisin Carlsberg: AQTVPYGIPLIKADKVQAQGFKGANVKVAVLDTGIQASHPDLNVVGGASFVAGEAYNTDGNGHGTHVAGTVAALDNTTGVLGVAPSVSLYAVKVLNSSGSGSYSGIVSGIEWATTNGMDVINMSLGGASGSTAMKQAVDNAYAKGVVVVAAAGNSGSSGNTNTIGYPAKYDSVIAVGAVDSNSNRASFSSVGAELEVMAPGAGVYSTYPTNTYATLNGTSMASPHVAGAAALILSKHPNLSASQVRNRLSSTATYLGSSFYYGKGLINVEAAAQ
concentration at which already toxic to osteoblasts [6]: about 0.5 U/mL | effect on biofilms comprising Candida albicans (in words) [7]: sensitised biofilms
